Assays:
[1] = tested on: VEGF induced increases in intracellular calcium levels in HUVEC (human umbilical vein endothelial cells); assay: VEGF Stimulated Ca++ signal assay (FLIPR); type: cell-based; details: VEGF 5 ng/mL; for IC50: 0.01 to 10.0 μM
Procedure: VEGF Stimulated Ca^++ Signal in vitro
Automated FLIPR (Fluorometric Imaging Plate Reader) technology was used to screen for inhibitors of VEGF induced increases in intracellular calcium levels in fluorescent dye loaded endothelial cells. HUVEC (human umbilical vein endothelial cells) (Clonetics) were seeded in 96-well fibronectin coated black-walled plates overnight @ 37° C./5%CO2. Cells were loaded with calcium indicator Fluo-4 for 45 minutes at 37° C. Cells were washed 4 times (Original Cell Wash, Labsystems) to remove extracellular dye. Test compounds were reconstituted in 100% DMSO and added to the cells to give a final DMSO concentration of 0.1%. For screening, cells were pre-incubated with test agents for 30 minutes, at a single concentration (10 μM) or at concentrations ranging from 0.01 to 10.0 μM followed by VEGF stimulation (5 ng/mL). Changes in fluorescence at 516 nm were measured simultaneously in all 96 wells using a cooled CCD camera. Data were generated by determining max-min fluorescence levels for unstimulated, stimulated, and drug treated samples. IC50 values for test compounds were calculated from % inhibition of VEGF stimulated responses in the absence of inhibitor.

[2] = target: T1, cytoplasmic domain of the human VEGF receptor (VEGFR-2) (Homo sapiens, UniProt P35968); assay: KDR Assay; type: biochemical; details: His-VEGFR-2, 3.6 μM ATP, poly-Glu-Tyr (4:1)
T1 construct: The cytoplasmic domain of the human VEGF receptor (VEGFR-2) was expressed as a Histidine-tagged fusion protein; His tag (Histidine-tagged fusion); made in house; host or cells: insect cells (engineered baculovirus)
T1 sequence (P35968 786-1356 limits assumed): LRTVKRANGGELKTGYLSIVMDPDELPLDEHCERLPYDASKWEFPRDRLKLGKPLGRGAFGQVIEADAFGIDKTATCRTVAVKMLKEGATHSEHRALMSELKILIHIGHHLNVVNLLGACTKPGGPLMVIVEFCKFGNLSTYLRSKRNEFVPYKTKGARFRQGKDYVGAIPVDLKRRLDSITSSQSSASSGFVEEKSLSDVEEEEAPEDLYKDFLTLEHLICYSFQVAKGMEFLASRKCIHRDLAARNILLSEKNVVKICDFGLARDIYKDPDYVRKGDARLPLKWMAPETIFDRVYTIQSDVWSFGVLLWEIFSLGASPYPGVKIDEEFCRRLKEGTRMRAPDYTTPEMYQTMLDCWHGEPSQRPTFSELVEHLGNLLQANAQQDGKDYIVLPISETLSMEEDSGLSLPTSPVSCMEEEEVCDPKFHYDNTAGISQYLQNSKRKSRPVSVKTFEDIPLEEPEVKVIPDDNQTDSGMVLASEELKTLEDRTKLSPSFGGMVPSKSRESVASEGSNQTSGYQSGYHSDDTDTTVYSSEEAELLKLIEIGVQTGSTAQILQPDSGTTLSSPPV
Procedure: The cytoplasmic domain of the human VEGF receptor (VEGFR-2) was expressed as a Histidine-tagged fusion protein following infection of insect cells using an engineered baculovirus. His-VEGFR-2 was purified to homogeneity, as determined by SDS-PAGE, using nickel resin chromatography. Kinase assays were performed in 96 well microtiter plates that were coated overnight with 30 μg of poly-Glu-Tyr (4:1) in 10 mM Phosphate Buffered Saline (PBS), pH 7.2-7.4. The plates were incubated with 1% BSA and then washed four times with PBS prior to starting the reaction. Reactions were carried out in 120 μL reaction volumes containing 3.6 μM ATP in kinase buffer (50 mM Hepes buffer pH 7.4, 20 mM MgCl2, 0.1 mM MnCl2 and 0.2 mM Na3VO4). Test compounds were reconstituted in 100% DMSO and added to the reaction to give a final DMSO concentration of 5%. Reactions were initiated by the addition 0.5 ng of purified protein. Following a ten minute incubation at 25° C., the reactions were washed four times with PBS containing 0.05% Tween-20. 100 μl of a monoclonal anti-phosphotyrosine antibody-peroxidase conjugate was diluted 1:10000 in PBS-Tween-20 and added to the wells for 30 minutes. Following four washes with PBS-Tween-20, 100 μl of 0-Phenylenediamine Dihydrochloride in Phosphate-citrate buffer, containing urea hydrogen peroxide, was added to the wells for 7 minutes as a colorimetric substrate for the peroxidase. The reaction was terminated by the addition of 100 μl of 2.5N H2SO4 to each well and read using a microplate ELISA reader set at 492 nm. IC50 values for compound inhibition were calculated directly from graphs of optical density (arbitrary units) versus compound concentration following subtraction of blank values.

[3] = Homo sapiens, 10 μM, 30 min pre-incubation

For “3-[(1-H-Pyrazol-3 ylamino)methylene]-1,3-dihydro-indol-2-one [Example 1]”, the “VEGF Stimulated Ca++ signal assay % inhibition @10 μM” value ([1]; 10 μM, 30 min pre-incubation) was 92.8% and the IC50 [1] was 3000 nM.
With O=C1Nc2ccccc2C1=CNc1cc(-c2ccccc2)[nH]n1 [Example 2, 3-[(5-Phenyl-H-pyrazol-3-ylamino)-methylene]-1,3-dihydro-indol-2-one] the inhibition at 10 µM [1, 3] was 90.5%, the IC50 ([1]; Homo sapiens) was 1330 nM and the IC50 [2] was 580 nM.
Cc1ccc(-c2cc(NC=C3C(=O)Nc4ccccc43)n[nH]2)cc1 [Example 3, 3-[(5-P-Tolyl-1H-pyrazol-3-ylamino)-methylene]-1,3-dihydro-indol-2-one] showed an inhibition at 10 µM [1, 3] of 74%, an IC50 ([1]; Homo sapiens) of 2440 nM and an IC50 [2] of 840 nM.
With O=C1Nc2ccccc2C1=CNc1cc(-c2ccco2)[nH]n1 [Example 4, 3-[(5-Furan-2-yl-1H-pyrazol-3-ylamino)-methylene]-1,3-dihydro-indol-2-one] the IC50 [1] was 700 nM, the inhibition at 10 µM [1, 3] was 92.6% and the IC50 ([1]; Homo sapiens) was ≤ 1000 nM. The IC50 [2] was 850 nM.
With COc1ccc(Cc2cc(NC=C3C(=O)Nc4ccccc43)n[nH]2)cc1 [Example 5, 3-{[5-(4-Methoxy-benzyl)-1H-pyrazol-3-ylamino]-methylene}-1,3-dihydro-indol-2-one] the IC50 [1] was 500 nM, the inhibition at 10 µM [1, 3] was 98% and the IC50 ([1]; Homo sapiens) was ≤ 1000 nM. For the same compound, the IC50 [2] was 180 nM.
Cc1cccc2c1C(=CNc1cc(-c3ccco3)[nH]n1)C(=O)N2 [Example 7, 3-[(5-Furan-2-yl-1H-pyrazol-3-ylamino)-methylene]-4-methyl-1,3-dihydro-indol-2-one] was tested, and the IC50 [1] was 920 nM, the inhibition at 10 µM [1, 3] was 98.3% and the IC50 ([1]; Homo sapiens) was ≤ 1000 nM. It also gave an IC50 [2] of 540 nM.
Cc1cccc2c1C(=CNc1cc(-c3ccccc3)[nH]n1)C(=O)N2 [Example 8, 4-Methyl-3-[(5-phenyl-1H-pyrazol-3-ylamino)-methylene]-1,3-dihydro-indol-2-one] was tested, and the inhibition at 10 µM [1, 3] was 64.5%, the IC50 ([1]; Homo sapiens) was 3170 nM and the IC50 [2] was 970 nM.
Work on O=C1Nc2ccc(Cl)cc2C1=CNc1cc[nH]n1 [Example 9, 5-Chloro-3-[(1H-pyrazol-3-ylamino)-methylene]-1,3-dihydro-indol-2-one] yielded an inhibition at 10 µM [1, 3] of 90%, an IC50 ([1]; Homo sapiens) of 6140 nM and an IC50 [2] of 1130 nM.
Compound O=C1Nc2ccc(Cl)cc2C1=CNc1cc(-c2ccco2)[nH]n1 [Example 10, 3-[(5-Furan-2-yl-1H-pyrazol-3-ylamino)-methylene]-5-chloro-1,3-dihydro-indol-2-one] has an inhibition at 10 µM [1, 3] of 76%, an IC50 ([1]; Homo sapiens) of 3230 nM and an IC50 [2] of 1030 nM.
Compound O=C1Nc2ccccc2C1=CNc1n[nH]c(-c2ccccc2)c1Br [Example 11, 3-[(4-Bromo-5-phenyl-1H-pyrazol-3-ylamino)-methylene]-1,3-dihydro-indol-2-one] has an inhibition at 10 µM [1, 3] of 23.4%.
Compound Cc1cccc2c1C(=CNc1n[nH]c(-c3ccccc3)c1Br)C(=O)N2 [Example 12, 3-[(4-Bromo-5-phenyl-1H-pyrazol-3-ylamino)-methylene]-4-methyl-1,3-dihydro-indol-2-one] has an inhibition at 10 µM [1, 3] of -12.9%.
In the case of O=C1Nc2ccc(Cl)cc2C1=CNc1n[nH]c(-c2ccccc2)c1Br [Example 13, 3-[(4-Bromo-5-phenyl-1H-pyrazol-3-ylamino)-methylene]-5chloro-1,3-dihydro-indol-2-one], the inhibition at 10 µM [1, 3] is reported as -19.1%.
In the case of O=C1Nc2ccc(Cl)cc2C1=CNc1cc(-c2ccccc2)[nH]n1 [Example 14, 5-Chloro-3-[(5-phenyl-1H-pyrazol-3-ylamino)-methylene]-1,3-dihydro-indol-2-one], the inhibition at 10 µM [1, 3] is reported as 27.4%.
In the case of O=C1Nc2ccccc2C1=CNc1n[nH]c2cccc(F)c12 [Example 15, 3-[(4-Fluoro-1H-indazol-3-ylamino)-methylene]-1,3-dihydro-indol-2-one], the inhibition at 10 µM [1, 3] is reported as 6.16%.
In the case of COc1ccc(-c2c(C)n[nH]c2NC=C2C(=O)Nc3ccccc32)cc1OC [Example 16, 3-{[4-(3,4-Dimethoxy-phenyl)-5-methyl-2H-pyrazol-3-ylamino]-methylene}-1,3-dihydro-indol-2-one], the inhibition at 10 µM [1, 3] is reported as -1.47%.
With CCOC(=O)c1c[nH]nc1NC=C1C(=O)Nc2ccccc21 [Example 17, 3-[(2-Oxo-1,2-dihydro-indol-3-ylidenemethyl)-amino]-1H-pyrazole-4-carboxylic acid ethyl ester] the inhibition at 10 µM [1, 3] was 27.2%.
CSc1[nH]nc(NC=C2C(=O)Nc3ccccc32)c1C#N [Example 18, 5-Methylsulfanyl-3-[(2-oxo-1,2-dihydro-indol-3-ylidenemethyl)-amino]-1H-pyrazole-4-carbonitrile] showed an inhibition at 10 µM [1, 3] of 14.1%.
Work on O=C1Nc2ccccc2C1=CNc1n[nH]cc1C(=O)O [Example 19, 3-[(2-Oxo-1,2-dihydro-indol-3-ylidenemethyl)-amino]-1H-pyrazole-4-carboxylic acid] yielded an inhibition at 10 µM [1, 3] of -0.89%.
In the case of N#Cc1c[nH]nc1NC=C1C(=O)Nc2ccccc21 [Example 20, 3-[(2-Oxo-1,2-dihydro-indol-3-ylidenemethyl)-amino]-1H-pyrazole-4-carbonitrile], the inhibition at 10 µM [1, 3] is reported as 35.8%.
In the case of O=C1Nc2ccccc2C1=CNc1n[nH]cc1Br [Example 21, 3-[(4-Bromo-1H-pyrazol-3-ylamino)-methylene]-1,3-dihydro-indol-2-one], the inhibition at 10 µM [1, 3] is reported as 32.1%.
With CC(C)(C)c1cc(NC=C2C(=O)Nc3ccccc32)n[nH]1 [Example 22, 3-[(5-tert-Butyl-1H-pyrazol-3-ylamino)-methylene]-1,3-dihydro-indol-2-one] the inhibition at 10 µM [1, 3] was 98.3%, the IC50 ([1]; Homo sapiens) was 6090 nM and the IC50 [2] was 5780 nM.
In the case of Cc1cc(NC=C2C(=O)Nc3ccccc32)n[nH]1 [Example 23, 3-[(5-Methyl-1H-pyrazol-3-ylamino)-methylene]-1,3-dihydro-indol-2-one], the IC50 [1] is reported as 900 nM, the inhibition at 10 µM [1, 3] is reported as 94.7% and the IC50 ([1]; Homo sapiens) is reported as ≤ 1000 nM. For the same compound, the IC50 [2] was 370 nM.
For COC(=O)c1ccc(-c2cc(NC=C3C(=O)Nc4ccccc43)n[nH]2)cc1 [Example 24, 4-{5-[(2-Oxo-1,2-dihydro-indol-3-ylidenemethyl)-amino]-2H-pyrazol-3-}-benzoic acid methyl ester], the inhibition at 10 µM [1, 3] was 56.9% and the IC50 ([1]; Homo sapiens) was ≥ 10000 nM.
For Cc1cc(C)c2c(NC=C3C(=O)Nc4ccccc43)n[nH]c2n1 [Example 25, 3-[(4,6-Dimethyl-1H-pyrazolo[3,4-b]pyridin-3-ylamino)-methylene]-1,3-dihydro-indol-2-one], the inhibition at 10 µM [1, 3] was 15.1%.
With COc1ccc(-c2cc(NC=C3C(=O)Nc4ccccc43)[nH]n2)cc1 [Example 30, 3-{[5-(4-Methoxy-phenyl)2H-pyrazol-3-ylamino]-methylene}-1,3-dihydro-indol-2-one] the inhibition at 10 µM [1, 3] was 12.3%.
With O=C1Nc2ccccc2C1=CNc1cc(-c2cc(OCc3ccccc3)cc(OCc3ccccc3)c2)n[nH]1 [Example 31, 3-{[5-(3,5-Bis-benzyloxy-phenyl)-2H-pyrazol-3-ylamino]-methylene}-1,3-dihydro-indol-2-one] the inhibition at 10 µM [1, 3] was -12.9%.
Cc1ccc(-c2cc(NC=C3C(=O)Nc4ccccc43)[nH]n2)c(C)c1 [Example 34, 3-{[5-(2,4-Dimethyl-phenyl)2H-pyrazol-3-ylamino]-methylene}-1,3-dihydro-indol-2-one] gave an inhibition at 10 µM [1, 3] of 58.8% and an IC50 ([1]; Homo sapiens) of 7640 nM.
Cc1cccc(Cc2cc(NC=C3C(=O)Nc4ccccc43)[nH]n2)c1 [Example 39, 3-{[5-(3-Methyl-benzyl)-2H-pyrazol-3-ylamino]-methylene}-1,3-dihydro-indol-2-one] showed an inhibition at 10 µM [1, 3] of -12.6%.
For O=C1Nc2ccccc2C1=CNc1cc(Cc2ccccc2)n[nH]1 [Example 40, 3-[(5-Benzyl-2H-pyrazol-3-ylamino)-methylene]-1,3-dihydro-indol-2-one], the inhibition at 10 µM [1, 3] was -0.03%.
For Cc1cc(NC=C2C(=O)Nc3cc(F)ccc32)n[nH]1 [Example 49, 6-Fluoro-3-[(5-methyl-1H-pyrazol-3-ylamino)-methylene]-1,3-dihydro-indol-2-one], the IC50 [2] was 570 nM.

From patent publication US6559173B1, “3-(heteroarylamino)methylene-1,3-dihydro-2H-indol-2-ones as kinase inhibitors” (Allergan, Inc., priority 2001, dated 2003)
